The assay has as its target PRMT5 (Homo sapiens (Human), UniProt O14744). In words: PRMT5 Chemiluminescent Assay. The assay is classed as biochemical. The settings on record: PRMT5 chemiluminescent assay kit (BPS Bioscience), histone H4 peptide substrate, eight-point dose response. The procedure:
The PRMT5 activity is measured by using “PRMT5 Chemiluminescent Assay Kit” from BPS Bioscience, Catalog Number 52002L as per the instructions of the manufacturer. Briefly, the PRMT5 enzyme is incubated with S-adenosylmethionine in a 96-well plate precoated with histone H4 peptide substrate. Next, a highly specific antibody that recognizes methylated R3 residue of Histone H4 is added followed by a horseradkish peroxidase-labeled (HRP-labeled) secondary antibody. Detection is done by the addition of the HRP substrate to produce chemiluminescence that can be measured quantitatively.
Compounds were serially diluted 3-fold and dosed from 10 uM down to 0 uM. Compounds were tested in duplicates to generate an eight-point dose response for the calculation of their IC50s.

SMILES strings stand for the structures.

Chain of PRMT5 (O14744 2-637): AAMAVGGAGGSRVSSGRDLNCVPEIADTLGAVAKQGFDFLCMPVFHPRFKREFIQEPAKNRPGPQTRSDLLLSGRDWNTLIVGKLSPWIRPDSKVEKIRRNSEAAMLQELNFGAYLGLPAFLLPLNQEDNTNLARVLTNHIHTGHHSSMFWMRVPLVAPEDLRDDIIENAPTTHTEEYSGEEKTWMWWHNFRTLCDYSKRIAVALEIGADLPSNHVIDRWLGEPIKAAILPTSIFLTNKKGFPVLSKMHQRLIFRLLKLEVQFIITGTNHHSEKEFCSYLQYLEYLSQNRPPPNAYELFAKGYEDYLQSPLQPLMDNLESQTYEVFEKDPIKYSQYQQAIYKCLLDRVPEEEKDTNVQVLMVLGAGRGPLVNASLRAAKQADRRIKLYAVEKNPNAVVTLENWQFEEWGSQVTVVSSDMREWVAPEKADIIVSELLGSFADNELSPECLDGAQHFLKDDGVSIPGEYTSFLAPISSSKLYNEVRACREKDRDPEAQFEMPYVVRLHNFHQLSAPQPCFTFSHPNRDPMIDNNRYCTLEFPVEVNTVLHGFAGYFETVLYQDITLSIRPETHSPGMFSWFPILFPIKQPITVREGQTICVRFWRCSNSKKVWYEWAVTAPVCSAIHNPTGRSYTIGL
Chain of PRMT5 (Q9BQA1 2-342 partner): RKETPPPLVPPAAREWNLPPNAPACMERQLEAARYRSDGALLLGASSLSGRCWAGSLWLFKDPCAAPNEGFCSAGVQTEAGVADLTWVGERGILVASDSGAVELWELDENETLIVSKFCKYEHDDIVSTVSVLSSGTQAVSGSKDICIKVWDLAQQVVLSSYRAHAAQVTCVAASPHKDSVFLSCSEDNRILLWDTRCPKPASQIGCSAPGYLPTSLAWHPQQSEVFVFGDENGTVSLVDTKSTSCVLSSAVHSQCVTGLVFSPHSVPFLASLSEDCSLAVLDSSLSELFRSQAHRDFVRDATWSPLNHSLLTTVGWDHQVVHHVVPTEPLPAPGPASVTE

`O=c1c2ccccc2n(Cc2ccc(Cl)cc2)c(=O)n1C[C@H](O)CN1CCc2ccccc2C1` (stereo in doubt) [Compound 96, 1-[(4-chlorophenyl)methyl]-3-[3-(3,4-dihydro-1H-isoquinolin-2-yl)-2-hydroxy-propyl]quinazoline-2,4-dione] showed an IC50 of 1060 nM.

`O=c1[nH]c2ccccc2c(=O)n1CC(O)CN1CCc2ccccc2C1` (centres unmarked) [Compound 61, 3-[3-(3,4-dihydro-1H-isoquinolin-2-yl)-2-hydroxy-propyl]-1H-quinazoline-2,4-dione] showed a concentration for half-maximal inhibition (IC50) of 876 nM.

As for `O=c1[nH]c2ccccc2c(=O)n1C[C@@H](O)CN1CCc2ccccc2C1` [Compound 62, 3-[(2S)-3-(3,4-dihydro-1H-isoquinolin-2-yl)-2-hydroxy-propyl]-1H-quinazoline-2,4-dione], the midpoint of inhibition, the IC50, lay at 13400 nM. Compared with the last compound, the IC50 is about 15-fold higher.

Compound `Cn1c(=O)n(CC(O)CN2CCc3ccccc3C2)c(=O)c2ccccc21` (centres unmarked) [Compound 63, 3-[3-(3,4-dihydro-1H-isoquinolin-2-yl)-2-hydroxy-propyl]-1-methyl-quinazoline-2,4-dione] came in with an IC50 of 698 nM.

Consider `O=c1[nH]c2ccccc2c(=O)n1C[C@H](O)CN1CCc2ccccc2C1` [Compound 64, 3-[(2R)-3-(3,4-dihydro-1H-isoquinolin-2-yl)-2-hydroxy-propyl]-1H-quinazoline-2,4-dione], for which inhibition was half-maximal at 360 nM (IC50). This IC50 lies about 1.9-fold lower than the previous one.

In turn, `COCCn1c(=O)n(CC(O)CN2CCc3ccccc3C2)c(=O)c2ccccc21` (centres unmarked) [Compound 65, 3-[3-(3,4-dihydro-1H-isoquinolin-2-yl)-2-hydroxy-propyl]-1-(2-methoxyethyl)quinazoline-2,4-dione] displayed an IC50 of 518 nM. The IC50 values of the last two compounds are within 1.5-fold of each other.

`O=c1[nH]c2ccc(F)cc2c(=O)n1C[C@H](O)CN1CCc2ccccc2C1` [Compound 66, 3-[(2R)-3-(3,4-dihydro-1H-isoquinolin-2-yl)-2-hydroxy-propyl]-6-fluoro-1H-quinazoline-2,4-dione] yielded an IC50 of 176 nM. This IC50 is about 2.9-fold lower than that of the compound before.

Turning to `O=c1[nH]c2ccc(Cl)cc2c(=O)n1C[C@H](O)CN1CCc2ccccc2C1` [Compound 67, 6-chloro-3-[(2R)-3-(3,4-dihydro-1H-isoquinolin-2-yl)-2-hydroxy-propyl]-1H-quinazoline-2,4-dione], it took 216 nM to reach half-maximal inhibition (IC50).

As for `O=c1[nH]c2cc(Cl)ccc2c(=O)n1C[C@H](O)CN1CCc2ccccc2C1` [Compound 68, 7-chloro-3-[(2R)-3-(3,4-dihydro-1H-isoquinolin-2-yl)-2-hydroxy-propyl]-1H-quinazoline-2,4-dione], the midpoint of inhibition, the IC50, lay at 33 nM.

Compound `CC(C)Cn1c(=O)n(C[C@H](O)CN2CCc3ccccc3C2)c(=O)c2cc(Cl)ccc21` [Compound 69, 6-chloro-3-[(2R)-3-(3,4-dihydro-1H-isoquinolin-2-yl)-2-hydroxy-propyl]-1-isobutyl-quinazoline-2,4-dione] registered a half-inhibitory concentration (IC50) of 126 nM. This IC50 is about 3.8-fold higher than that of the compound before.

On to `CC(C)Cn1c(=O)n(C[C@H](O)CN2CCc3ccccc3C2)c(=O)c2cc(Br)ccc21` [Compound 71, 6-bromo-3-[(2R)-3-(3,4-dihydro-1H-isoquinolin-2-yl)-2-hydroxy-propyl]-1-isobutyl-quinazoline-2,4-dione], for which the IC50 came to 159 nM.

Regarding `CC(C)Cn1c(=O)n(C[C@H](O)CN2CCc3ccccc3C2)c(=O)c2cc(F)ccc21` [Compound 72, 3-[(2R)-3-(3,4-dihydro-1H-isoquinolin-2-yl)-2-hydroxy-propyl]-6-fluoro-1-isobutyl-quinazoline-2,4-dione], 70 nM corresponded to half-maximal inhibition (IC50).

In turn, `CC(C)Cn1c(=O)n(C[C@H](O)CN2CCc3ccccc3C2)c(=O)c2ccc(Cl)cc21` [Compound 73, 7-chloro-3-[(2R)-3-(3,4-dihydro-1H-isoquinolin-2-yl)-2-hydroxy-propyl]-1-isobutyl-quinazoline-2,4-dione] displayed an IC50 of 14 nM.

As to `O=c1[nH]c2cc(Br)ccc2c(=O)n1C[C@H](O)CN1CCc2ccccc2C1` [Compound 75, 7-bromo-3-[(2R)-3-(3,4-dihydro-1H-isoquinolin-2-yl)-2-hydroxy-propyl]-1H-quinazoline-2,4-dione], the midpoint of inhibition, the IC50, lay at 24 nM. Against the preceding compound, the IC50 is about 1.7-fold higher.

As for `CC(C)Cn1c(=O)n(C[C@H](O)CN2CCc3ccccc3C2)c(=O)c2cc(-c3ccc(F)cc3)ccc21` [Compound 76, 3-[(2R)-3-(3,4-dihydro-1H-isoquinolin-2-yl)-2-hydroxy-propyl]-6-(4-fluorophenyl)-1-isobutyl-quinazoline-2,4-dione], inhibition was half-maximal at 57 nM (IC50).

In turn, `O=c1c2cc(F)ccc2n(CC2CC2)c(=O)n1C[C@H](O)CN1CCc2ccccc2C1` [Compound 77, 1-(cyclopropylmethyl)-3-[(2R)-3-(3,4-dihydro-1H-isoquinolin-2-yl)-2-hydroxy-propyl]-6-fluoro-quinazoline-2,4-dione] showed an IC50 of 63 nM.

Take `COc1ccc2[nH]c(=O)n(C[C@H](O)CN3CCc4ccccc4C3)c(=O)c2c1` [Compound 81, 3-[(2R)-3-(3,4-dihydro-1H-isoquinolin-2-yl)-2-hydroxy-propyl]-6-methoxy-1H-quinazoline-2,4-dione]: the IC50 is 159 nM. This IC50 is about 2.5-fold higher than that of the compound before.

On to `COc1ccc2c(=O)n(C[C@H](O)CN3CCc4ccccc4C3)c(=O)[nH]c2c1` [Compound 82, 3-[(2R)-3-(3,4-dihydro-1H-isoquinolin-2-yl)-2-hydroxy-propyl]-7-methoxy-1H-quinazoline-2,4-dione], for which half-maximal inhibition (IC50) was put at 66 nM. This IC50 lies about 2.4-fold lower than the previous one.

`O=c1[nH]c2ccc(O)cc2c(=O)n1C[C@H](O)CN1CCc2ccccc2C1` [Compound 83, 3-[(2R)-3-(3,4-dihydro-1H-isoquinolin-2-yl)-2-hydroxy-propyl]-6-hydroxy-1H-quinazoline-2,4-dione] gave an IC50 of 840 nM.

For `COc1ccc2c(=O)n(C[C@H](O)CN3CCc4ccccc4C3)c(=O)n(CC3CC3)c2c1` [Compound 84, 1-(cyclopropylmethyl)-3-[(2R)-3-(3,4-dihydro-1H-isoquinolin-2-yl)-2-hydroxy-propyl]-7-methoxy-quinazoline-2,4-dione], the half-maximal inhibitory concentration (IC50) was found to be 35 nM.

In turn, `Cc1cccc2c1c(=O)n(C[C@H](O)CN1CCc3ccccc3C1)c(=O)n2CC1CC1` [Compound 85, 1-(cyclopropylmethyl)-3-[(2R)-3-(3,4-dihydro-1H-isoquinolin-2-yl)-2-hydroxy-propyl]-5-methyl-quinazoline-2,4-dione] came in with a half-maximal inhibitory concentration (IC50) of 29 nM.

As for `O=c1c2ccc(-c3cccnc3)cc2n(CC2CC2)c(=O)n1C[C@H](O)CN1CCc2ccccc2C1` [Compound 86, 1-(cyclopropylmethyl)-3-[(2R)-3-(3,4-dihydro-1H-isoquinolin-2-yl)-2-hydroxy-propyl]-7-(3-pyridyl)quinazoline-2,4-dione], the midpoint of inhibition, the IC50, lay at 35 nM. The IC50 values of the last two compounds are within 1.5-fold of each other.

Compound `COc1ccc2c(c1)c(=O)n(C[C@H](O)CN1CCc3ccccc3C1)c(=O)n2CC1CC1` [Compound 87, 1-(cyclopropylmethyl)-3-[(2R)-3-(3,4-dihydro-1H-isoquinolin-2-yl)-2-hydroxy-propyl]-6-methoxy-quinazoline-2,4-dione] showed an IC50 of 58 nM.

The compound `Cc1ccc2c(c1)c(=O)n(C[C@H](O)CN1CCc3ccccc3C1)c(=O)n2CC1CC1` [Compound 88, 1-(cyclopropylmethyl)-3-[(2R)-3-(3,4-dihydro-1H-isoquinolin-2-yl)-2-hydroxy-propyl]-6-methyl-quinazoline-2,4-dione] returned a 50% inhibitory concentration (IC50) of 21 nM.

In the case of `O=c1c2c(F)cccc2n(CC2CC2)c(=O)n1C[C@H](O)CN1CCc2ccccc2C1` [Compound 89, 1-(cyclopropylmethyl)-3-[(2R)-3-(3,4-dihydro-1H-isoquinolin-2-yl)-2-hydroxy-propyl]-5-fluoro-quinazoline-2,4-dione], the IC50 came to 41 nM.

`O=c1c2ccccc2n(CC2CC2(F)F)c(=O)n1C[C@H](O)CN1CCc2ccccc2C1` (stereo partly drawn) [Compound 90, 1-[(2,2-difluorocyclopropyl)methyl]-3-[(2R)-3-(3,4-dihydro-1H-isoquinolin-2-yl)-2-hydroxy-propyl]quinazoline-2,4-dione] had an IC50 of 121 nM.

In turn, `O=c1c2ccccc2n(CCCC(F)(F)F)c(=O)n1C[C@H](O)CN1CCc2ccccc2C1` [Compound 93, 3-[(2R)-3-(3,4-dihydro-1H-isoquinolin-2-yl)-2-hydroxy-propyl]-1-(4,4,4-trifluorobutyl)quinazoline-2,4-dione] yielded an IC50 of 122 nM.

On to `O=c1c2ccccc2n(CC2CC(F)(F)C2)c(=O)n1C[C@H](O)CN1CCc2ccccc2C1` [Compound 95, 1-[(3,3-difluorocyclobutyl)methyl]-3-[(2R)-3-(3,4-dihydro-1H-isoquinolin-2-yl)-2-hydroxy-propyl]quinazoline-2,4-dione], for which half-maximal inhibition (IC50) required 164 nM.

For the compound `COc1ccc(Cn2c(=O)c3ccccc3n(CC(O)CN3CCc4ccccc4C3)c2=O)cc1` (centres unmarked) [Compound 97, 1-[3-(3,4-dihydro-1H-isoquinolin-2-yl)-2-hydroxy-propyl]-3-[(4-methoxyphenyl)methyl]quinazoline-2,4-dione], half-maximal inhibition (IC50) was put at 9410 nM.

Consider `CC(C)Cn1c(=O)n(CC(O)CN2CCc3ccccc3C2)c(=O)c2ccccc21` (centres unmarked) [Compound 98, 3-[3-(3,4-dihydro-1H-isoquinolin-2-yl)-2-hydroxy-propyl]-1-isobutyl-quinazoline-2,4-dione], for which the 50% inhibitory concentration (IC50) was 178 nM.

For the compound `N#Cc1ccc(Cn2c(=O)n(CC(O)CN3CCc4ccccc4C3)c(=O)c3ccccc32)cc1` (centres unmarked) [Compound 100, 4-[[3-[3-(3,4-dihydro-1H-isoquinolin-2-yl)-2-hydroxy-propyl]-2,4-dioxo-quinazolin-1-yl]methyl]benzonitrile], inhibition was half-maximal at 779 nM (IC50).

`CC(C)Cn1c(=O)n(C[C@@H](O)CN2CCc3ccccc3C2)c(=O)c2ccccc21` [Compound 101, 3-[(2S)-3-(3,4-dihydro-1H-isoquinolin-2-yl)-2-hydroxy-propyl]-1-isobutyl-quinazoline-2,4-dione]: the half-maximal inhibitory concentration (IC50) was 4490 nM.

As a reminder, the IC50 is the concentration that gives 50% inhibition.
